In test [1] the test system is CD34+ HSPCs derived from cord blood. The experiment in a line: Fed-batch bioreactor expansion culture of human CD34+ HSPCs. The class given is cell-based. Particulars: 500 nM, 12 days of expansion, compared to control FB cultures. As to the method:
Umbilical cord blood samples were collected from consenting donors according to ethically approved procedures at Mt. Sinai Hospital (Toronto, ON, Canada). Cells were red blood cell (RBC) depleted as previously described^10, using HetaSep (StemCell Technologies). CD34+ progenitor cells were selected with the EasySep system using a human CD34+ enrichment kit (StemCell Technologies), according to the manufacturer's protocol. Freshly isolated CD34+ cells were seeded at a density of 1×10^5 total cells/mL. Cells were seeded in StemSpan-ACF medium (StemCell Technologies), supplemented with 100 ng/mL Stem Cell Factor (SCF, R&D Systems or CellGenix), 100 ng/mL FMS-like Trysine Kinase 3 Ligand (Flt3L, R&D Systems or CellGenix), 50 ng/mL Thrombopoietin (TPO, R&D Systems or CellGenix), 2 mM GlutaMAX (GIBCO) and/or 500 nM UM729 small molecule. Cells were cultured for 12 days with minimal manual manipulation during the culture period, as previously described^11.
Cells were harvested from either fed-batch or fed-batch+UM729 at day 12 and sorted for CD34+ and CD34− populations. Sorted CD34+ and CD34− cells from both culture methods were seeded along with thawed unexpanded day 0 CD34+ HSPCs at 4000 cells/96-well coated overnight with 20 μg/mL DL4 and 2.3 μg/mL VCAM-1 in serum-free IMDM+BIT medium containing 100 ng/mL SCF, Tpo, Flt3L and IL-7. […]

For test [2], the system named is human umbilical cord blood-derived CD34+ HSPCs. In words: Human CD34+ HSPC progenitor T cell differentiation on coated plates. The settings on record: serum-free IMDM+BIT, 9 or 14 days; matrix proteins in conjunction with DL4. The class given is cell-based. As to the method:
For human HSPC culture, umbilical cord blood samples were collected from consenting donors according to ethically approved procedures at Mount Sinai Hospital. CD34+ cells were isolated from the red blood cell (RBC)-lysed cord blood fraction using the EasySep™ Human CD34 Positive Selection Kit (Stemcell Technologies) according to the manufacturer's instructions. Flow cytometry was performed after every enrichment to ensure CD34 frequencies were greater than 95%. CD34+ HSPCs were cultured for 14 days on DL4 and VCAM-1 coated 96-well plates at higher seeding densities of 12,500 HSPCs/cm^2 (corresponding to 4000 cells/well). One complete medium exchange was performed at day 7 of culture and cells were returned to the same DL4 and VCAM-1 coated plates. For certain experiments, DL4-Fc was coated alone or with RetroNectin® (Takara Shuzo) or fibronectin (Sigma Aldrich) as described in the text. CD34+ cells were cultured in serum-free Iscove modified Dulbecco medium (Gibco) with 20% bovine serum albumin, insulin, and transferrin serum substitute (BIT; Stemcell Technologies), 1% GlutaMAX™ (Gibco) and 1 μg/mL low-density lipoproteins (Calbiochem). The medium was added at 50 μL/well supplemented with 100 ng/mL SCF (R&D Systems, Minneapolis, MN), 100 ng/mL Flt3L (R&D Systems), 100 ng/mL Tpo (R&D Systems) and 100 ng/mL IL-7 (R&D Systems).
Surface marker staining was performed with conjugated rat anti-mouse antibodies (BD Biosciences, San Jose, CA, Table 1). All samples were analyzed on a FACSCanto™ or FACS LSRFortessa™ flow cytometer (BD Biosciences). At day 7 of culture, cells were lifted off the plate with multiple HF rinses, stained at 1:400 dilution with antibodies against CD45, CD25, CD44, CD90, CD11 b and CD19 for 20 minutes on ice. […] Integrin expression was analyzed using antibodies against α4, β1, and β7 integrin subunits on Sca-1+cKit+ mouse HSPCs and CD34+ human umbilical blood cells. […] Flow data was analyzed and batch processed using FlowJo® software and further analyzed in Python (version 2.7.10).

The test system of test [3] is sorted sca1+ckit+ fetal-liver HSPCs. In words: Defined T cell differentiation assay on adsorbed ligand, flow cytometry. The class given is cell-based, mouse. As to the method: FIG. 2a: Schematic for 2D coated DL4 assay, in which sorted E13.5 sca1+ckit+ fetal-liver HSPCs are seeded on coated DL4 ligand in standard 96-well flat bottom plates at 1000 cells/well density in 200 μl test media containing cytokines 25 ng/mL SCF, 5 ng/mL Flt3L and 1 ng/mL IL7; cells are re-fed on day 4 with fresh media containing cytokines; on day 7, cells are assayed for surface marker expression using flow cytometry.
Commercially available DL4-Fc was purchased and used for experiments from Sino Biologicals (Cedarlane Labs, Burlington, Ontario, Canada) or manufactured in-house as described below. DL4-Fc was diluted in chilled phosphate-buffered saline (PBS) at 10 μg/mL or […] and 50 μL/well was coated in standard tissue-culture 96-well plates overnight at 4° C. Wells were washed once with PBS prior to seeding cells to remove any unbound ligand from the wells. For certain experiments, wells were also coated overnight with 50 μL/well PBS containing DL4-Fc and VCAM-1-Fc (R&D) or fibronectin (Sigma) at concentrations described herein.
Sorted sca1+ckit+ HSPCs were cultured at 1000 cells/well (corresponding to 3.1×10^3 cells/cm^2) in DL4-coated 96-well plates in serum-free Iscove modified Dulbecco medium (Gibco, Rockville, MD) with 20% bovine serum albumin, insulin, and transferrin serum substitute (BIT; Stemcell Technologies), 1% GlutaMAX™ (Gibco) and 1 μg/mL low-density lipoproteins (Calbiochem, La Jolla, CA) [IMDM+BIT]. For positive control cultures, OP9 serum medium was used, composed of αMEM medium (Gibco) and 16% FBS (Hyclone™, GE Health). Serum-free αMEM+BIT medium was prepared exactly as IMDM+BIT medium except using αMEM (Gibco) as the base medium. OP9 serum medium, αMEM+BIT or IMDM+BIT serum free medium was added at 200 μL/well supplemented with 25 ng/mL Stem Cell Factor (SCF; R&D Systems, Minneapolis, MN), 5 ng/mL FMS-like Tyrosine Kinase 3 Ligand (Flt3L; R&D Systems) and 1 ng/mL Interleukin-7 (IL-7; R&D Systems) with a 50% medium exchange step at day 4 containing 2-fold concentrated cytokines as described previously^9. Design of Experiment (DOE) in silico modeling was performed using Design-Expert® (v10) using response surface method to investigate the combinatorial desirability of different concentrations of SCF, Flt3L and IL-7 for maximizing DN3 T-cell yield and minimizing the volume of IMDM+BIT medium. After DOE optimization, IMDM+BIT serum-free medium was added at 50 μL/well supplemented with 50 ng/mL SCF (R&D Systems), 10 ng/mL Flt3L (R&D Systems) and 10 ng/mL IL-7 (R&D Systems) unless described otherwise in the text with no medium exchange for the length of the assay. For the candidate factor screening in serum-free IMDM+BIT medium, the following proteins or small molecules were used at the concentrations listed: JAK inhibitor I (50 nM; EMD Millipore), IL-11 (10, 50, and 100 ng/mL; R&D Systems), IL-6 (10, 50, and 100 ng/mL; R&D Systems), IL-6R (100 ng/mL; R&D Systems), Ccl25 (1.5 μg/mL; R&D Systems), IL-7 (50, 100, and 200 ng/mL; R&D Systems), SDF1α (Cxcl12; 200 ng/mL; R&D Systems), and Leukemia Inhibitory Factor (LIF; 0.1, 1, and 10 ng/mL; EMD Millipore).
Surface marker staining was performed with conjugated rat anti-mouse antibodies (BD Biosciences, San Jose, CA, Table 1). All samples were analyzed on a FACSCanto™ or FACS LSRFortessa™ flow cytometer (BD Biosciences). At day 7 of culture, cells were lifted off the plate with multiple HF rinses, stained at 1:400 dilution with antibodies against CD45, CD25, CD44, CD90, CD11 b and CD19 for 20 minutes on ice. Human progenitor T-cells were stained at 1:100 dilution with antibodies against CD34, CD7, CD5 and CD45RA. Integrin expression was analyzed using antibodies against α4, β1, and β7 integrin subunits on Sca-1+cKit+ mouse HSPCs and CD34+ human umbilical blood cells. […]

The subject of test [4] is Notch pathway (CBF1-Firefly). In words: NIH3T3 luciferase assay for measuring Notch activation. The class given is cell-based. As to the method: NIH3T3 cells were seeded at 125,000 cells/well in a 6-well plate on the previous day and transiently transfected overnight with Notch1, CBF1-Firefly and constitutively active Renilla plasmids using FuGENE® HD transfection reagent (Promega Corporation, Madison WI USA) as per the manufacturer's instructions. Transfected NIH3T3 cells were either seeded on DL4-coated plates or in DL4-conjugated MC for 24 hours prior to measuring Firefly activation normalized to Renilla expression using the dual-luciferase reporter assay system (Promega Corporation, Madison WI USA) according to the manufacturer's instructions.

Turning to `COC(=O)c1ccc2c(c1)[nH]c1ncnc(NCCCN3CCCCC3)c12` [UM-729], in test [1], the “CD34− yield” value is “minimized CD34− yield” and the “overall CD34+ yield” value was “enhanced overall CD34+ yield”.

Take fibronectin [reference compound]: the “generation of later stage progenitor T cells from CD34+ HSPCs” value in test [2] is listed as “incapable of differentiating CD7+CD34+ progenitors further along the T cell lineage”.

Regarding “soluble DL4: DL4 ligand supplied in soluble rather than adsorbed form”, in test [3] (10 μg/mL soluble DL4, day 7), the “DN3 cell generation in soluble ligand” value is reported as “no DN3 cells were generated”. In addition, the “effect of soluble ligand on induction by adsorbed DL4” value in test [3] (mixture of adsorbed and soluble DL4, day 7) is “completely inhibited the inductive effects of adsorbed DL4 ligand”. For the same molecule, the “Notch1 intracellular domain translocation (CBF1-luciferase)” value in test [4] (soluble DL4 added, cells on immobilized DL4) is reported as “actively inhibits translocation of the intracellular domain of Notch1 receptor”.

B1: DL1: Delta-like-1 (DL1), alternate Notch-1 ligand (protein, UniProt O00548 18-723, looked up)
Delta-like protein 1: QVWSSGVFELKLQEFVNKKGLLGNRNCCRGGAGPPPCACRTFFRVCLKHYQASVSPEPPCTYGSAVTPVLGVDSFSLPDGGGADSAFSNPIRFPFGFTWPGTFSLIIEALHTDSPDDLATENPERLISRLATQRHLTVGEEWSQDLHSSGRTDLKYSYRFVCDEHYYGEGCSVFCRPRDDAFGHFTCGERGEKVCNPGWKGPYCTEPICLPGCDEQHGFCDKPGECKCRVGWQGRYCDECIRYPGCLHGTCQQPWQCNCQEGWGGLFCNQDLNYCTHHKPCKNGATCTNTGQGSYTCSCRPGYTGATCELGIDECDPSPCKNGGSCTDLENSYSCTCPPGFYGKICELSAMTCADGPCFNGGRCSDSPDGGYSCRCPVGYSGFNCEKKIDYCSSSPCSNGAKCVDLGDAYLCRCQAGFSGRHCDDNVDDCASSPCANGGTCRDGVNDFSCTCPPGYTGRNCSAPVSRCEHAPCHNGATCHERGHRYVCECARGYGGPNCQFLLPELPPGPAVVDLTEKLEGQGGPFPWVAVCAGVILVLMLLLGCAAVVVCVRLRLQKHRPPADPCRGETETMNNLANCQREKDISVSIIGATQIKNTNKKADFHGDHSADKNGFKARYPAVDYNLVQDLKGDDTAVRDAHSKRDTKCQPQGSSGEEKGTPTTLRGGEASERKRPDSGCSTSKDTKYQSVYVISEEKDECVIATEV
As for B1, the “generation of DN2/DN3 progenitor T cells on adsorbed ligand” value in test [3] (same range of coating concentrations as DL4, day 7) was “incapable of generating DN2 or DN3 progenitor T cells”. Besides, the “Notch pathway activation (CBF-1 Firefly normalized to Renilla)” value in test [4] (24 hours, DL1-Fc at 10 and 20 μg/mL) is “unable to sustain progenitor T cell production or activate the Notch pathway at similar coating concentrations as DL4 ligand”.

B2: IL-7: Interleukin-7 cytokine (R&D Systems) (protein, UniProt P13232 26-177, looked up)
Interleukin-7: DCDIEGKDGKQYESVLMVSIDQLLDSMKEIGSNCLNNEFNFFKRHICDANKEGMFLFRAARKLRQFLKMNSTGDFDLHLLKVSEGTTILLNCTGQVKGRKPAALGEAQPTKSLEENKSLKEQKKLNDLCFLKRLLQEIKTCWNKILMGTKEH
Take B2: the “DN3 yield with raised IL-7 concentration” value in test [3] (IL-7 from 2 to 10 ng/mL, 50-10-10 no-feed condition vs 25-5-1 re-feed control) is “significantly higher yields of T lineage-committed DN3 cells than the control”.

Source of the values: patent US12076342B2, “Method for generating progenitor t cells from stem and/or progenitor cells and use of same” (THE GOVERNING COUNCIL OF THE UNIVERSITY OF TORONTO, priority 2016, dated 2024).
